Experimental data published in ChEMBL document CHEMBL4665635, “Design and synthesis of various quinizarin derivatives as potential anticancer agents in acute T lymphoblastic leukemia” (Bioorg Med Chem, 2019).
Counter-ions that a name gives are not always drawn. Active and inactive are the calls of the source. The rule behind the calls is not given here.

How the values were obtained:
HEK293 [1] = assay: Cytotoxicity against human HEK293 cells assessed as inhibition of cell proliferation after 48 hrs by MTT assay; assay type: cell-based; conditions: HEK293, 48 h
K562 = assay: Cytotoxicity against human K562 cells assessed as inhibition of cell proliferation after 48 hrs by MTT assay; assay type: functional, cell-based; conditions: K562, 48 h
[2] = Solubility in water by spectrophotometry; assay type: physicochemical
HL-60 = assay: Cytotoxicity against human HL60 cells assessed as inhibition of cell proliferation after 48 hrs by MTT assay; assay type: functional, cell-based; conditions: HL-60, 48 h
Jurkat [3] = assay: Induction of apoptosis in human Jurkat cells assessed as caspase 3 activation at 2 to 4 uM incubated for 24 hrs by Western blot analysis; assay type: functional, cell-based; conditions: dose microM 2-4, time 24.0 hrs
NB-4 = assay: Cytotoxicity against human NB4 cells assessed as inhibition of cell proliferation after 48 hrs by MTT assay; assay type: functional, cell-based; conditions: NB-4, 48 h
MOLT-4 [4] = assay: Induction of apoptosis in human MOLT-4 cells assessed as total apoptotic cells at 4 uM measured after 24 hrs by Annexin V-APC/7-AAD staining based flow cytometric analysis relative to control; assay type: functional
NALM-6 = assay: Cytotoxicity against human NALM6 cells assessed as inhibition of cell proliferation after 48 hrs by MTT assay; assay type: functional, cell-based; conditions: NALM-6, 48 h
Jurkat [5] = assay: Cytotoxicity against human Jurkat cells assessed as inhibition of cell proliferation after 48 hrs by MTT assay; assay type: functional, cell-based
MOLT-4 [6] = assay: Induction of apoptosis in human MOLT-4 cells assessed as Notch1 degradation at 2 to 4 uM after 24 hrs by Western blot analysis; assay type: functional, cell-based; conditions: dose microM 2-4, time 24.0 hrs
MOLT-4 [7] = assay: Induction of apoptosis in human MOLT-4 cells assessed as decrease in Bcl-2 protein expression at 2 to 4 uM after 24 hrs by Western blot analysis; assay type: functional, cell-based; conditions: dose microM 2-4, time 24.0 hrs
Jurkat [8] = assay: Induction of apoptosis in human Jurkat cells assessed as caspase 9 activation at 2 to 4 uM incubated for 24 hrs by Western blot analysis; assay type: functional, cell-based; conditions: dose microM 2-4, time 24.0 hrs
MOLT-4 [9] = assay: Cytotoxicity against human MOLT4 cells assessed as inhibition of cell proliferation after 48 hrs by MTT assay; assay type: functional, cell-based; conditions: MOLT-4, 48 h
Jurkat [10] = assay: Induction of apoptosis in human Jurkat cells assessed as total apoptotic cells at 4 uM measured after 24 hrs by Annexin V-APC/7-AAD staining based flow cytometric analysis relative to control; assay type: functional
MOLT-4 [11] = assay: Induction of apoptosis in human MOLT-4 cells assessed as increase in cleaved caspase-3 levels at 4 uM after 24 hrs by Alexafluor-488 goat anti-rabbitIgG staining based flow cytometric analysis relative to control; assay type: functional
Jurkat [12] = assay: Induction of ROS generation in human Jurkat cells at 2 uM incubated for 12 hrs by flow cytometric analysis relative to control; assay type: functional
CA46 = assay: Cytotoxicity against human CA46 cells assessed as inhibition of cell proliferation after 48 hrs by MTT assay; assay type: functional, cell-based; conditions: CA46, 48 h
Jurkat [13] = assay: Induction of apoptosis in human Jurkat cells assessed as total apoptotic cells at 2 uM measured after 24 hrs by Annexin V-APC/7-AAD staining based flow cytometric analysis relative to control; assay type: functional
MOLT-4 [14] = assay: Induction of apoptosis in human MOLT-4 cells assessed as activation of PARP cleavage at 2 to 4 uM after 24 hrs by western blot analysis; assay type: functional, cell-based; conditions: dose microM 2-4, time 24.0 hrs
Jurkat [15] = assay: Induction of apoptosis in human Jurkat cells assessed as decrease in Bcl-2 protein expression at 2 to 4 uM after 24 hrs by Western blot analysis; assay type: functional, cell-based; conditions: dose microM 2-4, time 24.0 hrs
MOLT-4 [16] = assay: Induction of ROS generation in human MOLT-4 cells at 2 uM incubated for 12 hrs by flow cytometric analysis relative to control; assay type: functional
Jurkat [17] = assay: Cell cycle arrest in human Jurkat cells assessed as increase in cell population at G0/G1 phase at 2 to 4 uM after 24 hrs by propidium iodide/RNase staining based flow cytometric analysis; assay type: functional; conditions: dose microM 2-4, time 24.0 hrs
MOLT-4 [18] = assay: Induction of ROS generation in human MOLT-4 cells at 1 uM incubated for 12 hrs by flow cytometric analysis relative to control; assay type: functional
MOLT-4 [19] = assay: Induction of apoptosis in human MOLT-4 cells assessed as caspase 9 activation at 2 to 4 uM incubated for 24 hrs by Western blot analysis; assay type: functional, cell-based; conditions: dose microM 2-4, time 24.0 hrs
MOLT-4 [20] = assay: Cell cycle arrest in human MOLT-4 cells assessed as increase in cell population at G0/G1 phase at 2 to 4 uM after 24 hrs by propidium iodide/RNase staining based flow cytometric analysis; assay type: functional; conditions: dose microM 2-4, time 24.0 hrs
Jurkat [21] = assay: Induction of apoptosis in human Jurkat cells assessed as increase in cleaved caspase-3 levels at 4 uM after 24 hrs by Alexafluor-488 goat anti-rabbitIgG staining based flow cytometric analysis relative to control; assay type: functional
MOLT-4 [22] = assay: Induction of apoptosis in human MOLT-4 cells assessed as total apoptotic cells at 2 uM measured after 24 hrs by Annexin V-APC/7-AAD staining based flow cytometric analysis relative to control; assay type: functional
MOLT-4 [23] = assay: Induction of apoptosis in human MOLT-4 cells assessed as c-myc degradation at 2 to 4 uM after 24 hrs by Western blot analysis; assay type: functional, cell-based; conditions: dose microM 2-4, time 24.0 hrs
HEK293 [24] = assay: Induction of ROS generation in HEK293 cells at 1 uM incubated for 12 hrs by flow cytometric analysis relative to control; assay type: cell-based; conditions: human, hek293, 12 h
MOLT-4 [25] = assay: Induction of apoptosis in human MOLT-4 cells assessed as caspase 3 activation at 2 to 4 uM incubated for 24 hrs by Western blot analysis; assay type: functional, cell-based; conditions: dose microM 2-4, time 24.0 hrs
Jurkat [26] = assay: Induction of ROS generation in human Jurkat cells at 1 uM incubated for 12 hrs by flow cytometric analysis relative to control; assay type: functional
Jurkat [27] = assay: Induction of apoptosis in human Jurkat cells assessed as Notch1 degradation at 2 to 4 uM after 24 hrs by Western blot analysis; assay type: functional, cell-based; conditions: dose microM 2-4, time 24.0 hrs
MOLT-4 [28] = assay: Cell cycle arrest in human MOLT-4 cells assessed as decrease in cell population at S phase at 2 to 4 uM after 24 hrs by propidium iodide/RNase staining based flow cytometric analysis; assay type: functional; conditions: dose microM 2-4, time 24.0 hrs
HEK293 [29] = assay: Induction of ROS generation in HEK293 cells at 2 uM incubated for 12 hrs by flow cytometric analysis relative to control; assay type: cell-based; conditions: human, hek293, 12 h
Jurkat [30] = assay: Cell cycle arrest in human Jurkat cells assessed as decrease in cell population at S phase at 2 to 4 uM after 24 hrs by propidium iodide/RNase staining based flow cytometric analysis; assay type: functional; conditions: dose microM 2-4, time 24.0 hrs
Jurkat [31] = assay: Induction of apoptosis in human Jurkat cells assessed as activation of PARP cleavage at 2 to 4 uM after 24 hrs by western blot analysis; assay type: functional, cell-based; conditions: dose microM 2-4, time 24.0 hrs
Jurkat [32] = assay: Induction of apoptosis in human Jurkat cells assessed as c-myc degradation at 2 to 4 uM after 24 hrs by Western blot analysis; assay type: functional, cell-based; conditions: dose microM 2-4, time 24.0 hrs

CCCCCCCC[N+](C)(CCCCCCCC)Cc1ccc(COc2ccc(OCc3ccc(C[N+](CCO)(CCO)CCO)cc3)c3c2C(=O)c2ccccc2C3=O)cc1.[Br-].[Br-]
IC50 (HEK293 [1]): 9.43 µM
IC50 (K562): 10.9 µM
solubility [2]: 28200 µg/mL
IC50 (HL-60): 7.89 µM

CCCCCCCC[N+](C)(CCCCCCCC)Cc1ccc(COc2ccc(OCc3ccc(CBr)cc3)c3c2C(=O)c2ccccc2C3=O)cc1.[Br-]
IC50 (HEK293 [1]): 2.44 µM
Activity (Jurkat [3]): Active
IC50 (K562): 2.31 µM
IC50 (NB-4): 2.4 µM
Activity (MOLT-4 [4]): 39.67%
IC50 (NALM-6): 1.24 µM
IC50 (Jurkat [5]): 2.8 µM
Activity (MOLT-4 [6]): Dose-dependent effect
Activity (MOLT-4 [7]): Dose-dependent effect
Activity (Jurkat [8]): Active
IC50 (MOLT-4 [9]): 2.61 µM
Activity (Jurkat [10]): 48.96%
Activity (MOLT-4 [11]): 33%
Activity (Jurkat [12]): 38.1%
IC50 (CA46): 3.51 µM
Activity (Jurkat [13]): 25.57%
Activity (MOLT-4 [14]): Active
Activity (Jurkat [15]): Dose-dependent effect
Activity (MOLT-4 [16]): 73.97%
Activity (Jurkat [17]): Active
Activity (MOLT-4 [18]): 22.2%
Activity (MOLT-4 [19]): Active
Activity (MOLT-4 [20]): Active
Activity (Jurkat [21]): 43.4%
solubility [2]: < 10 µg/mL
Activity (MOLT-4 [22]): 22.76%
Activity (MOLT-4 [23]): Dose-dependent effect
Activity (HEK293 [24]): 2.78%
IC50 (HL-60): 1.4 µM
Activity (MOLT-4 [25]): Active
Activity (Jurkat [26]): 18.63%
Activity (Jurkat [27]): Dose-dependent effect
Activity (MOLT-4 [28]): Active
Activity (HEK293 [29]): 62.23%
Activity (Jurkat [30]): Active
Activity (Jurkat [31]): Active
Activity (Jurkat [32]): Dose-dependent effect

Br.Br.N=C(N)SCc1ccc(COc2ccc(OCc3ccc(CSC(=N)N)cc3)c3c2C(=O)c2ccccc2C3=O)cc1
IC50 (HEK293 [1]): 3.19 µM
IC50 (K562): 1.81 µM
solubility [2]: 59.3 µg/mL
IC50 (HL-60): 3.35 µM

CCCCCCCC[N+](C)(CCCCCCCC)Cc1cc(O)c2c(c1)C(=O)c1cccc(O)c1C2=O
IC50 (HEK293 [1]): 2.2 µM
IC50 (K562): 2.78 µM
IC50 (HL-60): 1.11 µM

O=C1c2ccccc2C(=O)c2c(OCc3ccc(CBr)cc3)ccc(OCc3ccc(CBr)cc3)c21
IC50 (HEK293 [1]): > 40 µM
IC50 (K562): > 40 µM
IC50 (HL-60): > 40 µM

CCCCCCCC[N+](C)(CCCCCCCC)Cc1ccc(COc2ccc(OCc3ccc(C[N+](C)(CCCCCCCC)CCCCCCCC)cc3)c3c2C(=O)c2ccccc2C3=O)cc1
IC50 (HEK293 [1]): 2.99 µM
IC50 (K562): 6.78 µM
IC50 (HL-60): 3.49 µM

CCCCCCCC[N+](C)(CCCCCCCC)Cc1cc(O)c2c(c1)Cc1cccc(O)c1C2=O
IC50 (HEK293 [1]): > 40 µM
IC50 (K562): > 40 µM
IC50 (HL-60): > 40 µM

COc1cccc2c1C(=O)c1c(O)c3c(c(O)c1C2=O)C[C@@](O)(C(=O)CO)C[C@@H]3O[C@H]1C[C@H](N)[C@H](O)[C@H](C)O1 [DOXORUBICIN HYDROCHLORIDE]
IC50 (HEK293 [1]): 0.37 µM
IC50 (K562): 0.63 µM
IC50 (HL-60): 0.14 µM

CCCCCCCC[P+](CCCCCCCC)(CCCCCCCC)Cc1ccc(COc2ccc(OCc3ccc(CSC(=N)N)cc3)c3c2C(=O)c2ccccc2C3=O)cc1
IC50 (HEK293 [1]): 6.66 µM
IC50 (K562): 8.04 µM
IC50 (HL-60): 5.16 µM

CCCCCCCC[P+](CCCCCCCC)(CCCCCCCC)Cc1ccc(COc2ccc(OCc3ccc(CBr)cc3)c3c2C(=O)c2ccccc2C3=O)cc1
IC50 (HEK293 [1]): 2.17 µM
IC50 (K562): 1.24 µM
IC50 (HL-60): 0.9 µM
